Where “and” joins values, the source holds several entries; their conditions need not be identical. Equal entries are not always repeated. Where two headings read alike, the source gives them in different places.
Legend:
[1] = target: OEP21 (Pisum sativum, UniProt Q9SM57); conditions: Cu^2+ oxidation then BS^3; 5 mM metabolite
[2] = target: T1, OEP21 wt (Pisum sativum, UniProt Q9SM57); experiment: FP competition with preformed MANT-ATP/OEP21-WT complex; format: binding, garden pea
T1 construct: made in house
Description: (§1) FP assays were performed on a spectrofluorometer FP-8300 (Jasco) equipped with a water bath cooling system MCM-100 (Jasco). […] A buffer containing no EDTA was used when MgCl2 was present. […] KD values were derived by fitting the data to a one-site binding model. […] All FP experiments were performed as triplicates.

[3] = ITC of ATP, GAP or phosphate with magnesium; format: binding; conditions: 10 mM HEPES pH7.0, 20 mM NaCl, read-out: KD for Mg^2+
Description: ITC experiments were performed with a MicroCal PEAQ-ITC instrument (Malvern Panalytical) at 25 °C in 10 mM HEPES pH 7.0, 20 mM NaCl, 0.5 mM EDTA, 1 mM DTT, 50 mM LDAO. […] Curve fitting and data analysis were done with the Malvern PEAQ-ITC software.
(§2) (a) (left) 2D-[^15N,^1H]-TROSY NMR spectra of 400 µM ^2H,^15N-labeled OmpX in LDAO micelles in 20 mM sodium phosphate, pH6.0, 50 mM NaCl, 0.5 mM EDTA and the indicated concentrations of D-GAP at 30 °C and 1.2 GHz magnetic field. (right) 2D-projections along the ^1H dimension of the 2D-spectra shown on (left). […] (right) Relative NMR peak intensities derived from the data in (left) and (middle). Buffer: 10 mM Na-phosphate pH7.0, 20 mM NaCl, 7% (v/v) D2O. […] (right) 150 mM MgCl2 was titrated into 15 mM potassium phosphate (Pi). Buffer conditions for all experiments were: 10 mM HEPES pH7.0, 20 mM NaCl.

[4] = target: T2, OEP21ΔL5 (Pisum sativum, UniProt Q9SM57, DEL70-80); experiment: FP competition with preformed MANT-ATP/OEP21ΔL5 complex; format: binding, garden pea
T2 construct: made in house; host or cells: Escherichia coli BL21(DE3) (described for OEP21)
Description: as §1

[5] = target: T1, OEP21 wt; experiment: SEC metabolite translocation assay with OEP21 WT proteoliposomes;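 as to all read-outs here: control is liposomes reconstituted without protein, prepared alongside. Molecule content inside liposomes measured after Triton X-100 disruption. PD10 SEC runs done with or without ATP and/or MgCl2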; format: biochemical, garden pea; conditions: for Relative content (% of mean Control): Fig. 4f, WT proteoliposomes, molecules of increasing molecular weight
[6] = target: OmpX (Escherichia coli, UniProt P0A917); experiment: 2D NMR control with OmpX in LDAO micelles; design: species or system bacterial; conditions: up to 5 mM GAP; control for nonspecific binding
Description: as §2

[7] = target: T3, OEP21 variants (single point mutations, ΔL5) (Pisum sativum, UniProt Q9SM57, R157A); experiment: Fluorescence polarization binding of MANT-ATP to OEP21 variants; design: species or system garden pea; conditions: OEP21 variant R157A; for Kd: unit inferred;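 as to all read-outs here: KD obtained by fitting fluorescence polarization data to a one-site binding model, each experiment run in triplicate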
T3 construct: made in house; host or cells: Escherichia coli BL21(DE3) (described for OEP21)

[8] = target: T4, OEP21 variants (single point mutations, ΔL5) (Pisum sativum, UniProt Q9SM57, R66A); experiment: as above; design: species or system garden pea; conditions: OEP21 variant R66A; for Kd: unit inferred
T4 construct: made in house; host or cells: Escherichia coli BL21(DE3) (described for OEP21)

[9] = target: T5, OEP21 variants (single point mutations, ΔL5) (Pisum sativum, UniProt Q9SM57, N164R/R66A); experiment: as above; design: species or system garden pea; conditions: OEP21 variant R66A/N164R; for Kd: unit inferred
T5 construct: made in house; host or cells: Escherichia coli BL21(DE3) (described for OEP21)

[10] = target: T6, OEP21 variants (single point mutations, ΔL5) (Pisum sativum, UniProt Q9SM57, R84A); experiment: as above; design: species or system garden pea; conditions: OEP21 variant R84A; for Kd: unit inferred
T6 construct: made in house; host or cells: Escherichia coli BL21(DE3) (described for OEP21)

[11] = target: T7, OEP21 variants (single point mutations, ΔL5) (Pisum sativum, UniProt Q9SM57, R174A); experiment: as above; design: species or system garden pea; conditions: OEP21 variant R174A; for Kd: unit inferred
T7 construct: made in house; host or cells: Escherichia coli BL21(DE3) (described for OEP21)

[12] = target: T8, OEP21 variants (single point mutations, ΔL5) (Pisum sativum, UniProt Q9SM57, R33A); experiment: as above; design: species or system garden pea; conditions: OEP21 variant R33A; for Kd: unit inferred
T8 construct: made in house; host or cells: Escherichia coli BL21(DE3) (described for OEP21)

[13] = target: T9, OEP21 variants (single point mutations, ΔL5) (Pisum sativum, UniProt Q9SM57, K19A); experiment: as above; design: species or system garden pea; conditions: OEP21 variant K19A; for Kd: unit inferred
T9 construct: made in house; host or cells: Escherichia coli BL21(DE3) (described for OEP21)

[14] = target: T10, OEP21 variants (single point mutations, ΔL5) (Pisum sativum, UniProt Q9SM57, R66W); experiment: as above; design: species or system garden pea; conditions: OEP21 variant R66W; for Kd: unit inferred
T10 construct: made in house; host or cells: Escherichia coli BL21(DE3) (described for OEP21)

[15] = target: T11, OEP21 variants (single point mutations, ΔL5) (Pisum sativum, UniProt Q9SM57, R142A); experiment: as above; design: species or system garden pea; conditions: OEP21 variant R142A; for Kd: unit inferred
T11 construct: made in house; host or cells: Escherichia coli BL21(DE3) (described for OEP21)

[16] = individual determinations, read-out: KD1-KD3

O=C[C@H](O)COP(=O)(O)O [GAP, D-glyceraldehyde-3-phosphate]
effect on enhanced oligomerization of Cys109-oxidized OEP21 (in words) [1]: reduced this process
IC50 ([2]; IC50 (dissociation of MANT-ATP), OEP21-WT, 1 µM MANT-ATP, 1 µM protein): ~10 mM
IC50 ([2]; IC50, wt, individual determinations): 11 mM and 10.7 mM
IC50 ([2]; mean IC50, wt): 10.9 mM
Kd [3]: ~9 mM and 9 mM
IC50 ([4]; IC50 (dissociation of MANT-ATP), OEP21ΔL5, 1 µM MANT-ATP, 1 µM protein): ~26 mM
IC50 ([4]; dL5, individual determinations, read-out: IC50): 31.1 mM and 20.4 mM
IC50 ([4]; dL5, read-out: mean IC50): 25.7 mM
Relative GAP content (% of mean Control) ([5]; ED Fig. 10a, WT 0.05uM, Mean): 95.6446 % of mean Control
Relative GAP content (% of mean Control) ([5]; ED Fig. 10a, WT 0.5uM, Mean): 62.4352 % of mean Control
Relative GAP content (% of mean Control) ([5]; ED Fig. 10a, WT 5uM, Mean): 38.701 % of mean Control
Relative GAP content (% of mean Control) ([5]; ED Fig. 10b, +ATP (2 mM per legend), OEP21 0.05uM, Mean): 91.3817 % of mean Control
Relative GAP content (% of mean Control) ([5]; ED Fig. 10b, +ATP (2 mM per legend), OEP21 0.5uM, Mean): 64.3295 % of mean Control
Relative GAP content (% of mean Control) ([5]; ED Fig. 10b, +ATP (2 mM per legend), OEP21 5uM, Mean): 54.5372 % of mean Control
Relative GAP content (% of mean Control) ([5]; ED Fig. 10c, WT, 0.05M NaCl, Mean): 38.1976 % of mean Control
Relative GAP content (% of mean Control) ([5]; ED Fig. 10c, WT, 1M NaCl, Mean): 59.8192 % of mean Control
Relative GAP content (% of mean Control) ([5]; ED Fig. 10c, WT, […] NaCl, Mean): 46.186 % of mean Control
Relative content (% of mean Control) ([5]; Mean): 48.3557 % of mean Control
Relative content (% of mean Control) ([5]; single replicates): 46.601 % of mean Control and 48.0754 % of mean Control and 50.3906 % of mean Control
Relative GAP content (% of mean Control) ([5]; Fig. 4d, WT, 5mM ATP, Mean): 40.9262 % of mean Control
Relative GAP content (% of mean Control) ([5]; Fig. 4d, WT, 10mM MgCl2+5mM ATP, Mean): 54.2808 % of mean Control
Relative GAP content (% of mean Control) ([5]; Fig. 4d, WT, 10mM MgCl2, Mean): 63.8331 % of mean Control
passage through the OEP21 channel (in words) ([5]; proteoliposomes, SEC, deadtime ~4 min): passed through the channel
effect on 2D-NMR spectra of OmpX (in words) [6]: did not observe any effect

2′-(or-3′)-O-(N-methylanthraniloyl) adenosine 5′-triphosphate [Mant-ATP]
Kd [7, 16]: 248 nM and 258 nM and 335 nM
rel KD1-KD3 ([7]; relative to mean KD of wt): 1.363 and 1.418 and 1.841
Kd ([7]; read-out: mean KD): 280 nM
Kd [8, 16]: 214 nM and 195 nM and 190 nM
rel KD1-KD3 ([8]; relative to mean KD of wt): 1.176 and 1.071 and 1.044
Kd ([8]; read-out: mean KD): 200 nM
Kd [9, 16]: 172 nM and 184 nM and 211 nM
rel KD1-KD3 ([9]; relative to mean KD of wt): 1.011 and 1.159
Kd ([9]; read-out: mean KD): 189 nM
Kd [10, 16]: 264 nM and 249 nM and 350 nM
rel KD1-KD3 ([10]; relative to mean KD of wt): 1.451 and 1.368 and 1.923
Kd ([10]; read-out: mean KD): 288 nM
Kd [11, 16]: 429 nM and 300 nM and 297 nM
rel KD1-KD3 ([11]; relative to mean KD of wt): 2.357 and 1.648 and 1.632
Kd ([11]; read-out: mean KD): 342 nM
Kd [12, 16]: 142 nM and 125 nM and 126 nM
rel KD1-KD3 ([12]; relative to mean KD of wt): 0.7802 and 0.6868 and 0.6923
Kd ([12]; read-out: mean KD): 131 nM
Kd [13, 16]: 221 nM and 259 nM and 267 nM
rel KD1-KD3 ([13]; relative to mean KD of wt): 1.214 and 1.423 and 1.467
Kd ([13]; read-out: mean KD): 249 nM
Kd [14, 16]: 275 nM and 175 nM and 227 nM
rel KD1-KD3 ([14]; relative to mean KD of wt): 1.511 and 1.247
Kd ([14]; read-out: mean KD): 226 nM
Kd [15, 16]: 270 nM and 331 nM and 267 nM
rel KD1-KD3 ([15]; relative to mean KD of wt): 1.484 and 1.819 and 1.467
Kd ([15]; read-out: mean KD): 289 nM

Source: publication PMC10279527, “Structural basis of metabolite transport by the chloroplast outer envelope channel OEP21” (Nature Structural & Molecular Biology, 2023)
